Laboratory results reported in US20040018579A1, “Dye-labelled peptide and method” (priority 2000, published 2004).
No end group written: not given here. Cy5Q = cyanine dye quencher coupled to the N-terminus (from Cy5Q-NHS)

Tested on: AspN
Assay: Endoproteinase AspN cleavage assay
Assay type: biochemical
Conditions: 2 μM, 500 μl, AspN 100 ng, overnight at ambient temperature, excitation 520 nm, emission 540-750 nm
Protocol: The fluorescence intensity of compound A (2 μM, 500 μl volume) in a quartz cuvette was recorded using a spectrofluorimeter. The sample was excited at 520 nm and emission over 540-750 nm recorded. AspN (100 ng, 50 μl volume) was added to the sample in the cuvette, which was stoppered, and kept dark at ambient temperature overnight. The fluorescence intensity was again recorded. […] Tween™ is a trademark of ICI Americas, Inc.

- Cy3 fluorescence on AspN-catalysed hydrolysis: increase in Cy3 fluorescence
Substance: Cy5Q -Asp-Glu-Val-Asp-Arg-Ser-Gly-Ser-Gly-Ser-Cy3-Ala-Leu-Thr-OH (Cy5Q-DEVDRSGSGS; not fully specified (C-terminus)) [Compound A]
